We go through three compounds from US20210109103A1, “METHODS AND KITS FOR DETECTING O-GlcNAc SITES USING B3GALNT2 AND OGT” (BIO-TECHNE CORPORATION, priority 2018, published 2021).

Each structure is given as a SMILES string.

In assay [1] the target is T1, recombinant human O-GlcNAc transferase (OGT) (Homo sapiens, UniProt O15294).
T1 construct: purchased R&D Systems and/or Bio-Techne
T1 sequence (O15294 1-1046): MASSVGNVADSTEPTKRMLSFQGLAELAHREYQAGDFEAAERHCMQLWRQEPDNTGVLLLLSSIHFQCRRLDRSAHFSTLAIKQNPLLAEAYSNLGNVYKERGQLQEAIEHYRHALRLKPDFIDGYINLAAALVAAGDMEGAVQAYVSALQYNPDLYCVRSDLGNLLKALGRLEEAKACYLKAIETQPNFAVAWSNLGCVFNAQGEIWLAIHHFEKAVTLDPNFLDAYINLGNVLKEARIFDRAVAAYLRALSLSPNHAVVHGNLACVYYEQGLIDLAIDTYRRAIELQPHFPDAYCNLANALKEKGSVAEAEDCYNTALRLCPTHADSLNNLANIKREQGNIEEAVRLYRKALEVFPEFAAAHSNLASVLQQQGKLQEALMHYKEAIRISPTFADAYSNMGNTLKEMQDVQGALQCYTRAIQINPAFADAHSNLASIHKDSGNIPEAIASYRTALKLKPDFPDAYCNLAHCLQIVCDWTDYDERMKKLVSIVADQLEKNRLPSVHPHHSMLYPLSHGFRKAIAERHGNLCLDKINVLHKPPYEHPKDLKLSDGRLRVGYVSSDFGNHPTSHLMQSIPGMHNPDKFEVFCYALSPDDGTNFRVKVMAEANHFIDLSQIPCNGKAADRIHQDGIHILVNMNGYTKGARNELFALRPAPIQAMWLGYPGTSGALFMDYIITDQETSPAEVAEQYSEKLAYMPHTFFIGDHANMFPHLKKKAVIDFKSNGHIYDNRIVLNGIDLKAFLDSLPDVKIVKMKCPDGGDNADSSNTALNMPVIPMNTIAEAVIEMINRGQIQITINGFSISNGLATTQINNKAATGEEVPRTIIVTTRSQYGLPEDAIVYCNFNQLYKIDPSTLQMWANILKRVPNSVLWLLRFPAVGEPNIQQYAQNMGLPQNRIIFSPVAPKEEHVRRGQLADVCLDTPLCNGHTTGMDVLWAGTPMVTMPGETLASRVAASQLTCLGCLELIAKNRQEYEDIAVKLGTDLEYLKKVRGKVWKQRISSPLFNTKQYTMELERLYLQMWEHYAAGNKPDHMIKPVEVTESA
Nature of the assay: phosphatase coupled universal glycosyltransferase assay, OGT. The format is biochemical. To be noted: 0.4 mM nucleotide sugar donor, 0.2 mM acceptor OGT substrate, 2.5 μg OGT, 37° C., 20 minutes (FIG. 8). The procedure: (§1) Using a phosphatase coupled universal glycosyltransferase assay, an analysis of the activity of B3GALNT2 and OGT on regular nucleotide sugar as compared to azido nucleotide sugar was performed. For the B3GALNT2 assay, 0.4 mM nucleotide sugar donor (UDP-GalNAc or UDP-GalNAz), 2 mM of acceptor substrate benzyl-β-GlcNAc, and 0.1 μg of coupling phosphatase 1 were combined with 1 μg of B3GALNT2 in 50 μL of assay buffer of 25 mM Tris at pH 7.5, 10 mM MnCl2 and 10 mM CaCl2 at 37° C. for 20 minutes. For the OGT assay, 0.4 mM nucleotide sugar donor (UDP-GlcNAc or UDP-GlcNAz), 0.2 mM of acceptor OGT substrate, and 0.1 μg of coupling phosphatase 1 were combined with 2.5 μg of OGT in 50 μL of assay buffer of 25 mM Tris at pH 7.5, 10 mM MnCl2 and 10 mM CaCl2 at 37° C. for 20 minutes. Both assays were performed according to the Universal Glycosyltransferase Assay Kit from R&D Systems®. FIG. 8 is a bar graph of the activity of B3GALNT2 and OGT on regular nucleotide sugars compared to azido nucleotide sugars.

Assay [2] concerns the target T2, recombinant human B3GALNT2 (Homo sapiens, UniProt Q8NCR0).
T2 construct: purchased R&D Systems and/or Bio-Techne
T2 sequence (Q8NCR0 1-500): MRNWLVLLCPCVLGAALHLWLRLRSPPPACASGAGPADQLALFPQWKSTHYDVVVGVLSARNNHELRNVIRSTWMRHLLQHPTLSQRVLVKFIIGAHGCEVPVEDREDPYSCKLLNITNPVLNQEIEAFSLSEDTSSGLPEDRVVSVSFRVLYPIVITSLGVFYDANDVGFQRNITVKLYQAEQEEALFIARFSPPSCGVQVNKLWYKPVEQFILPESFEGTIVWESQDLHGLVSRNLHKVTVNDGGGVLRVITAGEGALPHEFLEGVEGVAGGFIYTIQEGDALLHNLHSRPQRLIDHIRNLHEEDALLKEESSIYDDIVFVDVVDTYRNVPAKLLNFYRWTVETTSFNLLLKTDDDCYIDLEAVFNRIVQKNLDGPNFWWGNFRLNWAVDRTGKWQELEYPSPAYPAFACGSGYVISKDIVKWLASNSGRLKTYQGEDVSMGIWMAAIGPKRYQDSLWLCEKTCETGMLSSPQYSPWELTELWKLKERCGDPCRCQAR
Nature of the assay: phosphatase coupled universal glycosyltransferase assay, B3GALNT2. The format is biochemical. To be noted: 0.4 mM nucleotide sugar donor, 2 mM acceptor benzyl-β-GlcNAc, 1 μg B3GALNT2, 37° C., 20 minutes; compared with UDP-GalNAc (FIG. 8). The procedure: as §1

Regarding `CC(=O)N[C@H]1[C@@H](OP(=O)(O)OP(=O)(O)OC[C@H]2O[C@@H](n3ccc(=O)[nH]c3=O)[C@H](O)[C@@H]2O)O[C@H](CO)[C@@H](O)[C@@H]1O` [UDP-GlcNAc], the “activity of OGT on azido nucleotide sugar compared to regular nucleotide sugar” value in assay [1] is reported as “equally active”. In the case of `[N-]=[N+]=NCC(=O)N[C@H]1[C@@H](OP(=O)(O)OP(=O)(O)OC[C@H]2O[C@@H](n3ccc(=O)[nH]c3=O)[C@H](O)[C@@H]2O)O[C@H](CO)[C@@H](O)[C@@H]1O` [UDP-GlcNAz], in assay [1], the “activity of OGT on azido nucleotide sugar compared to regular nucleotide sugar” value was “equally active”. As to `[N-]=[N+]=NCC(=O)N[C@H]1[C@@H](OP(=O)(O)OP(=O)(O)OC[C@H]2O[C@@H](n3ccc(=O)[nH]c3=O)[C@H](O)[C@@H]2O)O[C@H](CO)[C@H](O)[C@@H]1O` [UDP-GalNAz], in assay [2], the “activity of B3GALNT2 on azido nucleotide sugar compared to regular nucleotide sugar” value is “more active on UDP-GalNAz than on UDP-GalNAc”.
